Results published in article PMC6265919, “Acylated Aminooligosaccharides with Inhibitory Effects against α-Amylase from Streptomyces sp. HO1518” (Marine Drugs, 2018).

Molecular target: T1, porcine pancreatic α-amylase (PPA) (Sus scrofa, UniProt P00690)
T1 sequence (P00690 16-511): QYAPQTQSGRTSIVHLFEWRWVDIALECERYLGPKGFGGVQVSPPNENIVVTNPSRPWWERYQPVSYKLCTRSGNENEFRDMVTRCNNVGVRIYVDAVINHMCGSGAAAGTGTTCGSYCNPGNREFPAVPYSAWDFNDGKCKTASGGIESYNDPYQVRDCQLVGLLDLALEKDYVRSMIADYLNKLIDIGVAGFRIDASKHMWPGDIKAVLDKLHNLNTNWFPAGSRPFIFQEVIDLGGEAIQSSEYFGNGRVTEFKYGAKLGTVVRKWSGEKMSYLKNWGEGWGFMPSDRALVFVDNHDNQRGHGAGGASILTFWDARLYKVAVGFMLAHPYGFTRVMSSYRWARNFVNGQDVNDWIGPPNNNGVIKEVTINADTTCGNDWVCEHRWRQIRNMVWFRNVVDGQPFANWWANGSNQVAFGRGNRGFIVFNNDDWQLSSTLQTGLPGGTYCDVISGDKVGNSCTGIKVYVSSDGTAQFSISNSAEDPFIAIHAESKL
Experiment: Porcine pancreatic α-amylase (PPA) inhibitory activity assay (starch-iodine)
Assay type: biochemical
Details: PPA 50 U/mL, 0.2% soluble starch, phosphate buffer pH 6.9, 20 °C, 30 min; averages of three replicates
Protocol: Porcine pancreatic α-amylase inhibitory (PPA) inhibitory activity assay was carried out reference to the procedure previously described. In brief, 5 μL of enzyme solution (PPA, 50 U/mL) and 10-fold series diluted test sample solution (inhibitors, dissolved in distilled water) were mixed and pre-incubated. 100 μL of 0.2% soluble starch (substrate, dissolved in 100 mM phosphate buffer, pH 6.9) was added and incubated at 20 °C for 30 min. The reaction was terminated by the addition of 20 μL 1 M HCl. The remaining starch was quantified by using the following method: 100 μL of the reaction solution was mixed with 25 μL of Lugol’s iodine solution. The absorption was measured at 630 nm in the 96-well plates. […] The data were imported into GraphPad Prism version 5.0 (GraphPad Software, San Diego, CA, USA, www.graphpad.com) and the IC50 values were calculated by using a standard dose response curve fitting.

`CC(=O)OC[C@H]1O[C@H](O[C@H]2[C@H](O)[C@@H](O)[C@@H](O[C@H]3[C@H](O)[C@@H](O)[C@@H](O[C@H]4[C@H](O)[C@@H](O)C(O)O[C@@H]4CO)O[C@@H]3CO)O[C@@H]2CO)[C@H](O)[C@@H](O)[C@@H]1O[C@H]1O[C@H](C)[C@@H](N[C@H]2C=C(CO)[C@@H](O[C@H]3O[C@H](CO)[C@@H](O[C@H]4O[C@H](C)[C@@H](N[C@H]5C=C(CO)[C@@H](O)[C@H](O)[C@H]5O)[C@H](O)[C@H]4O)[C@H](O)[C@H]3O)[C@H](O)[C@H]2O)[C@H](O)[C@H]1O` (stereo partly drawn) [compound 1, D6-O-acetyl-acarviostatin II03] was tested. Which IC50 did it give?
The IC50 was 29 ± 1 nM.

`CC(O)CC(=O)OC[C@H]1O[C@H](O[C@H]2[C@H](O)[C@@H](O)[C@@H](O[C@H]3[C@H](O)[C@@H](O)[C@@H](O[C@H]4[C@H](O)[C@@H](O)C(O)O[C@@H]4CO)O[C@@H]3CO)O[C@@H]2CO)[C@H](O)[C@@H](O)[C@@H]1O[C@H]1O[C@H](C)[C@@H](N[C@H]2C=C(CO)[C@@H](O[C@H]3O[C@H](CO)[C@@H](O[C@H]4O[C@H](C)[C@@H](N[C@H]5C=C(CO)[C@@H](O)[C@H](O)[C@H]5O)[C@H](O)[C@H]4O)[C@H](O)[C@H]3O)[C@H](O)[C@H]2O)[C@H](O)[C@H]1O` (stereo partly drawn) [compound 2, D6-O-β-hydroxybutyryl-acarviostatin II03] was tested. Which IC50 did it give?
Its IC50 is 49 ± 16 nM.

For `CC(=O)OC[C@H]1O[C@H](O[C@H]2[C@H](O)[C@@H](O)[C@@H](O[C@H]3[C@H](O)[C@@H](O)[C@@H](O[C@H]4[C@H](O)[C@@H](O)C(O)O[C@@H]4CO)O[C@@H]3CO)O[C@@H]2CO)[C@H](O)[C@@H](O)[C@@H]1O[C@H]1O[C@H](C)[C@@H](N[C@H]2C=C(CO)[C@@H](O)[C@H](O)[C@H]2O)[C@H](O)[C@H]1O` (stereo partly drawn) [compound 3, D6-O-acetyl-acarviostatin I03], which IC50 is on record?
Its IC50 is 693 ± 97 nM.

With `CCC(=O)OC[C@H]1O[C@H](O[C@H]2[C@H](O)[C@@H](O)[C@@H](O[C@H]3[C@H](O)[C@@H](O)[C@@H](O[C@H]4[C@H](O)[C@@H](O)C(O)O[C@@H]4CO)O[C@@H]3CO)O[C@@H]2CO)[C@H](O)[C@@H](O)[C@@H]1O[C@H]1O[C@H](C)[C@@H](N[C@H]2C=C(CO)[C@@H](O)[C@H](O)[C@H]2O)[C@H](O)[C@H]1O` (stereo partly drawn) [compound 4, D6-O-propionyl-acarviostatin I03] as the molecule, how does the IC50 read?
Its IC50 is 625 ± 24 nM.

For `CC(O)CC(=O)OC[C@H]1O[C@H](O[C@H]2[C@H](O)[C@@H](O)[C@@H](O[C@H]3[C@H](O)[C@@H](O)[C@@H](O[C@H]4[C@H](O)[C@@H](O)C(O)O[C@@H]4CO)O[C@@H]3CO)O[C@@H]2CO)[C@H](O)[C@@H](O)[C@@H]1O[C@H]1O[C@H](C)[C@@H](N[C@H]2C=C(CO)[C@@H](O)[C@H](O)[C@H]2O)[C@H](O)[C@H]1O` (stereo partly drawn) [compound 5, D6-O-β-hydroxybutyryl-acarviostatin I03], which IC50 is on record?
The IC50 was 495 ± 63 nM.

How did the IC50 turn out when `C[C@H]1O[C@H](O[C@H]2[C@H](O)[C@@H](O)[C@@H](O[C@H]3[C@H](O)[C@@H](O)[C@@H](O[C@H]4[C@H](O)[C@@H](O)[C@@H](O[C@H]5[C@H](O)[C@@H](O)C(O)O[C@@H]5CO)O[C@@H]4CO)O[C@@H]3CO)O[C@@H]2CO)[C@H](O)[C@@H](O)[C@@H]1N[C@H]1C=C(CO)[C@@H](O[C@H]2O[C@H](CO)[C@@H](O[C@H]3O[C@H](C)[C@@H](N[C@H]4C=C(CO)[C@@H](O)[C@H](O)[C@H]4O)[C@H](O)[C@H]3O)[C@H](O)[C@H]2O)[C@H](O)[C@H]1O` (stereo partly drawn) [compound 6, acarviostatin II03] was run?
The IC50 was 29 ± 4 nM.
